Structures can show the parent of a compound that is named as a salt.

A short description of the data set: Heating of the active substance at 150° C. for 15 minutes (HPLC, DSC, TGA, HSM, spectroscopic investigations). Format: physicochemical. The protocol:
Physical Stability Studies on the Active Substances and the Excipients Used in the Formulation of the Tablets.
5.0 mg carefully weighed of every excipient/substance was placed in aluminium pans, closed with a suitable press and analyzed by means of DSC (Perkin Elmer 7) under nitrogen flow; the analysis was also carried out on the thermally-treated powders. The operating conditions utilised were the following: initial temperature (Tstart)=50° C.; final temperature (Tend) 250° C.; gradient=10° C./min.
The determination of the weight variations of the active substances and excipients, of the powder mixtures and the powders obtained by crushing the tablets was conducted through TGA 7 of Perkin Elmer, in nitrogen atmosphere, using the same temperatures and the same heating gradients used in the thermal heat treatments.

As to `COc1ccc([C@@H]2Sc3ccccc3N(CCN(C)C)C(=O)[C@@H]2OC(C)=O)cc1` [Diltiazem hydrochloride], the “physical or chemical modification after heating” value is “did not involve any physical or chemical modification”.

These data come from patent publication US9078825B2, “Method for the production of bioadhesive compact matrices” (Università degli Studi di Genova, priority 2008, dated 2015).
